According to ChEMBL document CHEMBL1201862, “PubChem BioAssay data set” (2004):
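Protocol summary: plate cells (96-well), add compound at 5 concentrations, incubate 48 h, interpolate endpoints linearly. GI50 marks 50% less growth.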 Calls of active or inactive are those of the source. No stated cut-off is given here; in the data, active = GI50 up to about 1.1 µM and inactive = higher.

Columns and labels:
Assay in all cases: NCI-60 cell line screen, 48 h
MOLT-4 = test system: MOLT-4
T47D = test system: T47D
NCI-H460 = test system: NCI-H460
786-0 = test system: 786-0
SF-539 = test system: SF-539
BT-549 = test system: BT-549
UACC-257 = test system: UACC-257
DU-145 = test system: DU-145
SN12C = test system: SN12C
HOP-92 = test system: HOP-92
MDA-MB-231 = test system: MDA-MB-231
M14 = test system: M14
SR = test system: SR
MDA-MB-435 = test system: MDA-MB-435
CAKI-1 = test system: CAKI-1
SK-OV-3 = test system: SK-OV-3
HCT-15 = test system: HCT-15
OVCAR-5 = test system: OVCAR-5
OVCAR-3 = test system: OVCAR-3
SK-MEL-2 = test system: SK-MEL-2
Hs-578T = test system: Hs-578T
NCI-H522 = test system: NCI-H522
NCI-H226 = test system: NCI-H226
MCF7 = test system: MCF7
A549 = test system: A549
U-251 = test system: U-251
COLO 205 = test system: COLO 205
SNB-75 = test system: SNB-75
MDA-N = test system: MDA-N
OVCAR-8 = test system: OVCAR-8
SK-MEL-5 = test system: SK-MEL-5
TK-10 = test system: TK-10
HCT-116 = test system: HCT-116
HCC 2998 = test system: HCC 2998
SK-MEL-28 = test system: SK-MEL-28
CCRF-CEM = test system: CCRF-CEM
LOX IMVI = test system: LOX IMVI
RXF 393 = test system: RXF 393
UO-31 = test system: UO-31
NCI-H23 = test system: NCI-H23
PC-3 = test system: PC-3
HOP-62 = test system: HOP-62
UACC-62 = test system: UACC-62
K562 = test system: K562
OVCAR-4 = test system: OVCAR-4
SF-295 = test system: SF-295
SW-620 = test system: SW-620
ACHN = test system: ACHN
HT-29 = test system: HT-29
SNB-19 = test system: SNB-19
RPMI-8226 = test system: RPMI-8226
HL-60 = test system: HL-60
SF-268 = test system: SF-268
EKVX = test system: EKVX
NCI/ADR-RES = test system: NCI/ADR-RES
Malme-3M = test system: Malme-3M
IGROV-1 = test system: IGROV-1
KM12 = test system: KM12
A498 = test system: A498

## O=C1CCCc2cc3c(cc21)CC1(C3)Cc2cc3c(cc2C1)C(=O)CCC3
MOLT-4
  GI50: 1 µM (active)
T47D
  GI50: 9.48 µM (inactive)
NCI-H460
  GI50: 1.22 µM (inactive)
786-0
  GI50: 2.58 µM (inactive)
SF-539
  GI50: 1.12 µM (active)
BT-549
  GI50: 0.653 µM (active)
UACC-257
  GI50: 2.28 µM (inactive)
DU-145
  GI50: 2.18 µM (inactive)
SN12C
  GI50: 4.46 µM (inactive)
HOP-92
  GI50: 6.78 µM (inactive)
MDA-MB-231
  GI50: 3.16 µM (inactive)
M14
  GI50: 0.536 µM (active)
SR
  GI50: 0.106 µM (active)
MDA-MB-435
  GI50: 0.231 µM (active)
CAKI-1
  GI50: 1.91 µM (inactive)
SK-OV-3
  GI50: 3.52 µM (inactive)
HCT-15
  GI50: 0.662 µM
OVCAR-5
  GI50: 4.54 µM (inactive)
OVCAR-3
  GI50: 1.57 µM (inactive)
SK-MEL-2
  GI50: 1.57 µM (inactive)
Hs-578T
  GI50: 2.64 µM (inactive)
NCI-H522
  GI50: 0.679 µM (active)
NCI-H226
  GI50: 2.7 µM (inactive)
MCF7
  GI50: 0.484 µM (active)
A549
  GI50: 1.39 µM (inactive)
U-251
  GI50: 1.64 µM (inactive)
COLO 205
  GI50: 1.33 µM (inactive)
SNB-75
  GI50: 2.2 µM (inactive)
MDA-N
  GI50: 0.214 µM (active)
OVCAR-8
  GI50: 3.04 µM (inactive)
SK-MEL-5
  GI50: 0.532 µM (active)
TK-10
  GI50: 1.81 µM (inactive)
HCT-116
  GI50: 0.706 µM (active)
HCC 2998
  GI50: 2.34 µM (inactive)
SK-MEL-28
  GI50: 3.23 µM (inactive)
CCRF-CEM
  GI50: 0.998 µM (active)
LOX IMVI
  GI50: 1.48 µM (inactive)
RXF 393
  GI50: 1.45 µM (inactive)
UO-31
  GI50: 5.55 µM (inactive)
NCI-H23
  GI50: 2.2 µM (inactive)
PC-3
  GI50: 1.24 µM (inactive)
HOP-62
  GI50: 2.29 µM (inactive)
UACC-62
  GI50: 0.531 µM (active)
K562
  GI50: 0.396 µM (active)
OVCAR-4
  GI50: 4.43 µM (inactive)
SF-295
  GI50: 0.923 µM (active)
SW-620
  GI50: 0.815 µM (active)
ACHN
  GI50: 2.86 µM (inactive)
HT-29
  GI50: 0.743 µM (active)
SNB-19
  GI50: 4.58 µM (inactive)
RPMI-8226
  GI50: 0.746 µM (active)
HL-60
  GI50: 0.368 µM (active)
SF-268
  GI50: 3.37 µM (inactive)
EKVX
  GI50: 5.48 µM (inactive)
NCI/ADR-RES
  GI50: 0.769 µM (active)
Malme-3M
  GI50: 0.798 µM (active)
IGROV-1
  GI50: 1.38 µM (inactive)
KM12
  GI50: 0.493 µM (active)
A498
  GI50: 5.45 µM (inactive)

## O=C(NCc1cccnc1)C(=O)NCc1cccnc1
MOLT-4
  GI50: 0.149 µM (active)
T47D
  GI50: > 100 µM (inactive)
NCI-H460
  GI50: > 100 µM (inactive)
786-0
  GI50: > 100 µM (inactive)
SF-539
  GI50: > 100 µM (inactive)
BT-549
  GI50: > 100 µM (inactive)
UACC-257
  GI50: > 100 µM (inactive)
DU-145
  GI50: > 100 µM (inactive)
SN12C
  GI50: > 100 µM (inactive)
HOP-92
  GI50: > 100 µM (inactive)
MDA-MB-231
  GI50: > 100 µM (inactive)
M14
  GI50: > 100 µM (inactive)
SR
  GI50: 81.1 µM (inactive)
MDA-MB-435
  GI50: > 100 µM (inactive)
CAKI-1
  GI50: > 100 µM (inactive)
SK-OV-3
  GI50: > 100 µM (inactive)
HCT-15
  GI50: > 100 µM
OVCAR-5
  GI50: > 100 µM (inactive)
OVCAR-3
  GI50: > 100 µM (inactive)
SK-MEL-2
  GI50: > 100 µM (inactive)
Hs-578T
  GI50: > 100 µM (inactive)
NCI-H522
  GI50: > 100 µM (inactive)
NCI-H226
  GI50: > 100 µM (inactive)
MCF7
  GI50: > 100 µM (inactive)
A549
  GI50: > 100 µM (inactive)
U-251
  GI50: > 100 µM (inactive)
COLO 205
  GI50: > 100 µM (inactive)
SNB-75
  GI50: > 100 µM (inactive)
MDA-N
  GI50: > 100 µM (inactive)
OVCAR-8
  GI50: > 100 µM (inactive)
SK-MEL-5
  GI50: > 100 µM (inactive)
TK-10
  GI50: > 100 µM (inactive)
HCT-116
  GI50: > 100 µM (inactive)
HCC 2998
  GI50: > 100 µM (inactive)
SK-MEL-28
  GI50: > 100 µM (inactive)
LOX IMVI
  GI50: > 100 µM (inactive)
RXF 393
  GI50: > 100 µM (inactive)
UO-31
  GI50: > 100 µM (inactive)
NCI-H23
  GI50: > 100 µM (inactive)
PC-3
  GI50: > 100 µM (inactive)
HOP-62
  GI50: > 100 µM (inactive)
UACC-62
  GI50: > 100 µM (inactive)
K562
  GI50: > 100 µM (inactive)
OVCAR-4
  GI50: > 100 µM (inactive)
SF-295
  GI50: > 100 µM (inactive)
SW-620
  GI50: > 100 µM (inactive)
ACHN
  GI50: > 100 µM (inactive)
HT-29
  GI50: > 100 µM (inactive)
SNB-19
  GI50: > 100 µM (inactive)
RPMI-8226
  GI50: > 100 µM (inactive)
HL-60
  GI50: 27.4 µM (inactive)
SF-268
  GI50: > 100 µM (inactive)
EKVX
  GI50: > 100 µM (inactive)
NCI/ADR-RES
  GI50: > 100 µM (inactive)
Malme-3M
  GI50: > 100 µM (inactive)
IGROV-1
  GI50: > 100 µM (inactive)
KM12
  GI50: > 100 µM (inactive)
A498
  GI50: > 100 µM (inactive)

## CN(CCc1ccc(Cl)c(Cl)c1)[C@H]1CCCC[C@H]1N1CCCC1
MOLT-4
  GI50: > 100 µM (inactive)
T47D
  GI50: > 100 µM (inactive)
786-0
  GI50: > 100 µM (inactive)
BT-549
  GI50: > 100 µM (inactive)
UACC-257
  GI50: > 100 µM (inactive)
DU-145
  GI50: > 100 µM (inactive)
SN12C
  GI50: > 100 µM (inactive)
HOP-92
  GI50: > 100 µM (inactive)
MDA-MB-231
  GI50: > 100 µM (inactive)
M14
  GI50: > 100 µM (inactive)
SR
  GI50: > 100 µM (inactive)
MDA-MB-435
  GI50: > 100 µM (inactive)
CAKI-1
  GI50: > 100 µM (inactive)
SK-OV-3
  GI50: > 100 µM (inactive)
HCT-15
  GI50: > 100 µM
OVCAR-5
  GI50: > 100 µM (inactive)
OVCAR-3
  GI50: > 100 µM (inactive)
SK-MEL-2
  GI50: > 100 µM (inactive)
Hs-578T
  GI50: > 100 µM (inactive)
NCI-H522
  GI50: > 100 µM (inactive)
NCI-H226
  GI50: > 100 µM (inactive)
MCF7
  GI50: > 100 µM (inactive)
A549
  GI50: > 100 µM (inactive)
U-251
  GI50: > 100 µM (inactive)
COLO 205
  GI50: > 100 µM (inactive)
MDA-N
  GI50: > 100 µM (inactive)
OVCAR-8
  GI50: > 100 µM (inactive)
SK-MEL-5
  GI50: > 100 µM (inactive)
TK-10
  GI50: > 100 µM (inactive)
HCT-116
  GI50: > 100 µM (inactive)
HCC 2998
  GI50: > 100 µM (inactive)
SK-MEL-28
  GI50: > 100 µM (inactive)
LOX IMVI
  GI50: > 100 µM (inactive)
RXF 393
  GI50: > 100 µM (inactive)
UO-31
  GI50: > 100 µM (inactive)
NCI-H23
  GI50: > 100 µM (inactive)
PC-3
  GI50: > 100 µM (inactive)
HOP-62
  GI50: > 100 µM (inactive)
UACC-62
  GI50: > 100 µM (inactive)
K562
  GI50: > 100 µM (inactive)
OVCAR-4
  GI50: > 100 µM (inactive)
SF-295
  GI50: > 100 µM (inactive)
SW-620
  GI50: > 100 µM (inactive)
ACHN
  GI50: > 100 µM (inactive)
HT-29
  GI50: > 100 µM (inactive)
SNB-19
  GI50: > 100 µM (inactive)
RPMI-8226
  GI50: > 100 µM (inactive)
HL-60
  GI50: > 100 µM (inactive)
SF-268
  GI50: > 100 µM (inactive)
EKVX
  GI50: > 100 µM (inactive)
NCI/ADR-RES
  GI50: > 100 µM (inactive)
Malme-3M
  GI50: > 100 µM (inactive)
IGROV-1
  GI50: > 100 µM (inactive)
KM12
  GI50: > 100 µM (inactive)
A498
  GI50: > 100 µM (inactive)
